In test [1] the test system is production of human TNF-α by PBMC in response to LPS. Put plainly: TNF-α assay (LPS-stimulated PBMC, sandwich ELISA). The format is cell-based. The following applies: LPS 1 μg/ml, 72 hours, read-out: TNF α. The method in brief:
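Human PBMC isolated from heparinised blood by density gradient (10^6 cells/ml) stimulated with LPS at 1 μg/ml final, with test compound at 0.1, 1 and 10 μM, 72 h at 37° C, 5% CO2. Supernatant TNF-α quantified by sandwich ELISA against recombinant standard curve; % suppression calculated.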
On the technique in general: ELISA stands for enzyme-linked immunosorbent assay.

Test [2] has as its system peripheral blood mononuclear cells (PBMC) stimulated with allogeneic PBMC or EBV-transformed human B cells (RPMI1788). Kind of test: Mixed lymphocyte reaction (MLR) assay. Format: cell-based. The note with it: 50% suppression of the MLR, [3H]-thymidine incorporation, read-out: MLR. Summed up: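 Responder PBMC co-cultured in triplicate with 30 Gy-irradiated allogeneic PBMC or RPMI1788 B cells plus compound (DMSO stock 10 mM, diluted in medium). After 5 days at 37° C, 1 μCi [3H]-thymidine added for 16 h more; incorporated cpm counted and proliferation inhibition calculated.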
(In general: Incorporation of labelled thymidine or its analogues reports DNA synthesis.)

Test [3] concerns phosphodiesterase-4 (PDE-4) extract from U937 cells. Put plainly: Phosphodiesterase-4 inhibiting activity (isotopic two-step method). Format: biochemical. The following applies: for IC50: 1.01 μM [3H]cAMP+cAMP.

SMILES strings stand for the structures. Where two headings read alike, the source gives them in different places.

Regarding `COc1ccc(-c2ccc3ncnc(N4CCN(C(=O)Nc5cccc(C)c5)CC4)c3n2)cc1OC` [Example 8], the IC50 turned out to be 0.07 µM in test [1] (Homo sapiens, PBMC); 0.0094 µM in test [2] (Homo sapiens, RPMI-1788); 0.016 µM in test [3].

Consider `COc1ccc(-c2ccc3nc(C)nc(N4CCN(C(=O)Nc5cccc(C)c5)CC4)c3n2)cc1OC` [Example 11], for which the figures for the IC50 in test [1] and in test [2] were 0.5 µM and 0.026 µM, respectively. Besides, the “PDE-4 (% inhibition)” value in test [3] (@ 0.5 μM) came to 69% @ 0.5 μM.

Turning to `COc1ccc(-c2ccc3nc(N)nc(OC(C)C)c3n2)cc1OC` [Example 24, 2-amino-4-isopropoxy-6-(3,4-dimethoxyphenyl)pyrido[3,2-d]pyrimidine], the IC50 in test [1] (Homo sapiens, PBMC) was found to be 0.5 µM; in test [2] (Homo sapiens, RPMI-1788) it was 0.066 µM. Further, in test [3] (@ 0.5 μM), the “PDE-4 (% inhibition)” value is listed as 29% @ 0.5 μM.

For the compound `CCOC(=O)C1CCN(c2nc(N)nc3ccc(-c4ccc(OC)c(OC)c4)nc23)CC1` [Example 26, 2-amino-4-[4-(ethoxycarbonyl)piperidin-1-yl]-6-(3,4-dimethoxyphenyl)pyrido[3,2-d]pyrimidine], the IC50 in test [1] (Homo sapiens, PBMC) came to 0.06 µM; in test [2] (Homo sapiens, RPMI-1788), 2.6 µM; in test [3], 0.25 µM.

As for `COc1ccc(-c2ccc3nc(N)nc(N4CCN(c5ccc(F)cc5)CC4)c3n2)cc1OC` [Example 43, 2-amino-4-(4-fluorophenyl-piperazin-1-yl)-6-(3,4-dimethoxyphenyl)-pyrido[3,2-d]pyrimidine], the IC50 in test [1] was 0.09 µM; in test [2] it was 0.3 µM. In addition, in test [3] (@ 0.09 μM), the “PDE-4 (% inhibition)” value amounted to 61% @ 0.09 μM.

Regarding `COc1ccc(-c2ccc3nc(N)nc(N4CCN(c5ccccn5)CC4)c3n2)cc1OC` [Example 47, 2-amino-4-(2-pyridyl-piperazin-1-yl)-6-(3,4-dimethoxyphenyl)-pyrido[3,2-d]pyrimidine], the figures for the IC50 in test [1] and in test [2] were 0.05 µM and 0.3 µM, respectively. Further, the “PDE-4 (% inhibition)” value in test [3] (@ 0.05 μM) is given as 64% @ 0.05 μM.

As for `COc1ccc(-c2ccc3nc(N)nc(N4CCN(CC(=O)Nc5nccs5)CC4)c3n2)cc1OC` [Example 48, 2-amino-4-[2-(piperazin-1-yl)-acetic acid N-(2-thiazolyl)-amide]-6-(3,4-dimethoxyphenyl)-pyrido[3,2-d]pyrimidine], the IC50 in test [1] and in test [2] was 0.06 µM each time. Moreover, the “PDE-4 (% inhibition)” value in test [3] (@ 0.06 μM) was 59% @ 0.06 μM.

As for `COc1ccc(-c2ccc3nc(N)nc(N4CCN(C(C)=O)CC4)c3n2)cc1OC` [Example 49, 2-amino-4-(N-acetyl-piperazinyl)-6-(3,4-dimethoxyphenyl)-pyrido[3,2-d]pyrimidine], the results for the IC50 in test [1] and in test [2] were 0.04 µM and 0.07 µM, respectively. Further, the “PDE-4 (% inhibition)” value in test [3] (@ 0.04 μM) is given as 48% @ 0.04 μM.

As for `COc1ccc(-c2ccc3nc(N)nc(N4CCN(C(=O)c5ccco5)CC4)c3n2)cc1OC` [Example 51, 2-amino-4-[1-(2-furoyl)-piperazin-1-yl]-6-(3,4-dimethoxyphenyl)-pyrido[3,2-d]pyrimidine], the IC50 in test [2] came to 0.03 µM. In addition, the “PDE-4 (% inhibition)” value in test [3] (@ 0.03 μM) is 63% @ 0.03 μM.

Consider `COc1ccc(-c2ccc3nc(N)nc(N4CCN(C(=O)Nc5ccsc5)CC4)c3n2)cc1OC` [Example 54, 2-amino-4(N-3-thienylcarbamoyl-piperazin-1-yl)-6-(3,4-dimethoxyphenyl)-pyrido[3,2-d]pyrimidine], for which the IC50 is 0.05 µM in test [1] and 0.002 µM in test [2]. Further, the “PDE-4 (% inhibition)” value in test [3] (@ 0.1 μM) came to 62% @ 0.1 μM.

Regarding `COc1ccc(-c2ccc3nc(N)nc(N4CCN(C(=O)Nc5ccc(F)cc5)CC4)c3n2)cc1OC` [Example 56, 2-amino-4(N-4-fluoro-phenyl-carbamoyl-piperazin-1-yl)-6-(3,4-dimethoxy-phenyl)-pyrido[3,2-d]pyrimidine], the IC50 came to 0.07 µM in test [1] and 0.003 µM in test [2]. The “PDE-4 (% inhibition)” value in test [3] (@ 0.1 μM) was determined as 74% @ 0.1 μM.

On to `COc1ccc(-c2ccc3nc(N)nc(N4CCN(C(=O)Nc5ccc(F)c(Cl)c5)CC4)c3n2)cc1OC` [Example 57, 2-amino-4(N-3-chloro-4-fluoro-phenyl-carbamoyl-piperazin-1-yl)-6-(3,4-dimethoxyphenyl)-pyrido[3,2-d]pyrimidine], for which the IC50 in test [1] was 0.3 µM; in test [2] it was 0.004 µM. Further, the “PDE-4 (% inhibition)” value in test [3] (@ 0.1 μM) was found to be 74% @ 0.1 μM.

On to `COc1ccc(-c2ccc3nc(N)nc(N4CCN(C(=O)Nc5cccc(Cl)c5)CC4)c3n2)cc1OC` [Example 58, 2-amino-4(N-3-chloro-phenyl-carbamoyl-piperazin-1-yl)-6-(3,4-dimethoxy-phenyl)-pyrido[3,2-d]pyrimidine], for which the IC50 in test [1] stood at 0.26 µM; in test [2], 0.0004 µM. Further, the “PDE-4 (% inhibition)” value in test [3] (@ 0.1 μM) is listed as 75% @ 0.1 μM.

`COc1ccc(-c2ccc3nc(N)nc(N4CCN(C(=O)COc5ccc(Cl)cc5)CC4)c3n2)cc1OC` [Example 59, 2-amino-4-[(N-4-chloro-phenoxy-acetyl)-piperazin-1-yl]-6-(3,4-dimethoxyphenyl)-pyrido[3,2-d]pyrimidine]: the IC50 in test [2] (Homo sapiens, RPMI-1788) amounted to 0.016 µM; in test [3] it was 0.034 µM.

As to `COc1ccc(-c2ccc3ncnc(N4CCN(C(=O)Nc5cccc(Cl)c5)CC4)c3n2)cc1Cl` [Example 79, 4-[(N-3-chlorophenylcarbamoyl)-piperazin-1-yl]-6-(3-chloro-4-methoxyphenyl)-pyrido[3,2-d]pyrimidine], the IC50 in test [2] came to 0.3 µM. For the same compound, the “PDE-4 (% inhibition)” value in test [3] (@ 10 μM) is recorded as 67% @ 10 μM.

For `O=C(Nc1cccc(Cl)c1)N1CCN(c2ncnc3ccc(-c4ccc5c(c4)OCCO5)nc23)CC1` [Example 80, 4-[(N-3-chlorophenylcarbamoyl)-piperazin-1-yl]-6-(1,4-benzodioxan-6-yl)-pyrido[3,2-d]pyrimidine], the IC50 in test [2] amounted to 0.3 µM. The “PDE-4 (% inhibition)” value in test [3] (@ 10 μM) is on record as 17% @ 10 μM.

In the case of `Cc1ccc(-c2ccc3ncnc(N4CCN(C(=O)Nc5cccc(Cl)c5)CC4)c3n2)cc1C` [Example 81], the IC50 in test [2] amounted to 0.5 µM. Further, the “PDE-4 (% inhibition)” value in test [3] (@ 10 μM) is on record as 12% @ 10 μM.

For the compound `O=C(Nc1cccc(Cl)c1)N1CCN(c2ncnc3ccc(-c4ccc5c(c4)OCO5)nc23)CC1` [Example 82, 4-[(N-3-chlorophenylcarbamoyl)-piperazin-1-yl]-6-(3,4-methylenedioxy)phenyl-pyrido[3,2-d]pyrimidine], the IC50 in test [2] came out at 0.3 µM. Further, in test [3] (@ 10 μM), the “PDE-4 (% inhibition)” value is reported as 31% @ 10 μM.

Turning to `CCOc1ccc(-c2ccc3ncnc(N4CCN(C(=O)Nc5cccc(Cl)c5)CC4)c3n2)cc1Cl` [Example 83], the IC50 in test [2] is 0.5 µM. The “PDE-4 (% inhibition)” value in test [3] (@ 10 μM) turned out to be 49% @ 10 μM.

As for `O=C(Nc1cccc(Cl)c1)N1CCN(c2ncnc3ccc(-c4ccc(Cl)c(Cl)c4)nc23)CC1` [Example 84], the IC50 in test [2] was determined as 0.7 µM. In test [3] (@ 10 μM), the “PDE-4 (% inhibition)” value is given as 22% @ 10 μM.

Consider `COc1ccc(-c2ccc3ncnc(N4CCN(C(=O)Nc5ccc(F)c(Cl)c5)CC4)c3n2)cc1OC` [Example 108, 4-[(N-3-chloro-4-fluorophenylcarbamoyl)-piperazin-1-yl]-6-(3,4-dimethoxy-phenyl)-pyrido[3,2-d]pyrimidine], for which the results for the IC50 in test [1] and in test [2] were 0.2 µM and 0.06 µM, respectively. In test [3] (@ 0.2 μM), the “PDE-4 (% inhibition)” value is recorded as 59% @ 0.2 μM.

With `COc1ccc(-c2ccc3ncnc(N4CCN(C(=O)Nc5cccs5)CC4)c3n2)cc1OC` [Example 109], the IC50 worked out at 0.13 µM in test [1] and 0.06 µM in test [2]. For the same compound, the “PDE-4 (% inhibition)” value in test [3] (@ 0.09 μM) is on record as 58% @ 0.09 μM.

For `COc1ccc(-c2ccc3ncnc(N4CCN(C(=O)COc5ccc(Cl)cc5)CC4)c3n2)cc1OC` [Example 113, 4-[(N-4-chlorophenoxy-acetyl)-piperazin-1-yl]-6-(3,4-dimethoxyphenyl)-pyrido[3,2-d]pyrimidine], the values for the IC50 in test [1] and in test [2] were 0.3 µM and 0.04 µM, respectively. The “PDE-4 (% inhibition)” value in test [3] (@ 0.4 μM) was 77% @ 0.4 μM.

On to `COc1cc(-c2ccc3ncnc(N4CCN(C(=O)Nc5cccc(Cl)c5)CC4)c3n2)ccc1OC(C)C` [Example 121], for which the IC50 in test [2] turned out to be 0.3 µM. The “PDE-4 (% inhibition)” value in test [3] (@ 10 μM) is reported as 54% 10 μM.

Consider `Nc1nc(N2CCN(C(=O)COc3ccc(Cl)cc3)CC2)c2nc(-c3ccc(F)cc3)ccc2n1` [Example 207, 2-amino-4-[(N-4-chloro-phenoxy-acetyl)-piperazin-1-yl]-6-(4-fluorophenyl)-pyrido[3,2-d]pyrimidine], for which the IC50 in test [2] amounted to 0.03 µM. The “PDE-4 (% inhibition)” value in test [3] (@ 10 μM) is 34% @ 10 μM.

`COc1cc(-c2ccc3ncnc(N4CCN(C(=O)Nc5cccc(Cl)c5)CC4)c3n2)ccc1OCC1CC1` [Example 211, 4-[N-(3-chloro-phenylcarbamoyl)-piperazin-1-yl]-6-(3-methoxy-4-cyclopropylmethoxy-phenyl)-pyrido[3,2-d]pyrimidine]: the IC50 in test [2] came out at 0.4 µM. The “PDE-4 (% inhibition)” value in test [3] (@ 10 μM) is recorded as 16% @ 10 μM.

In the case of `COc1ccc(-c2ccc3nc(N)nc(N4CCN(C(=O)Nc5cccc(Cl)c5)CC4)c3n2)cc1O` [Example 212], the IC50 was found to be 0.9 µM in test [1] (Homo sapiens, PBMC) and 0.04 µM in test [2] (Homo sapiens, RPMI-1788). The “PDE-4 (% inhibition)” value in test [3] (@ 0.9 μM) is on record as 43% @ 0.9 μM.

Take `CCOc1cc(-c2ccc3ncnc(N4CCN(C(=O)Nc5cccc(Cl)c5)CC4)c3n2)ccc1OC` [Example 213, 4-[N-(3-chloro-phenylcarbamoyl)-piperazin-1-yl]-6-(3-ethoxy-4-methoxy-phenyl)-pyrido[3,2-d]pyrimidine]: the IC50 in test [1] (Homo sapiens, PBMC) worked out at 0.06 µM; in test [2] (Homo sapiens, RPMI-1788), 0.057 µM. Also, the “PDE-4 (% inhibition)” value in test [3] (@ 0.06 μM) was found to be 78% @ 0.06 μM.

(Values after US20090264415A2 (priority 2004, published 2009).)
